Test results as given in patent EP4635488A1, “PHARMACEUTICAL COMPOSITION FOR PREVENTING OR TREATING BONE DISEASES” (Industry Foundation of Chonnam National University, priority 2022, dated 2024).

Tests used:
BMDMs = experiment: Cell viability assay of BMM/BMDMs; format: cell-based, C57/BL6 mice; conditions: below 4 µM; 48 hours
Experimental: (§1) Bone marrow cells (BMC) were obtained from 8-week-old female C57/BL6 mice by washing femurs and tibias with α-MEM. BMCs were then cultured overnight in full α-MEM containing 10% FBS, 100 U/mL penicillin, and 100 µg/mL streptomycin. Non-attached cells were collected and cultured with M-CSF (30 ng/ mL) for 3 days, and then the attached cells were used as BMM. All animal experiments were approved by Chonnam National University IACUC (approval number: CNU IACUC-YB-2019-49).
(§2) To generate osteoclasts, BMMs were harvested and cultured in a complete medium containing 30 ng/mL M-CSF and 50 ng/mL RANKL with or without compounds for approximately 4 days to obtain mature osteoclasts. Differentiated osteoclasts were fixed with 4% formalin for 15 minutes, and then the cells were stained using a TRAP staining kit. The spread of osteoclast areas could be observed under the microscope. The viability of BMM (1 × 10^4 cells/well) was assessed in a 96-well plate using a cell viability assay kit as previously described.

[1] = system: human IPSC-derived macrophages; experiment: Human osteoclast differentiation model (TRAP staining / TRAP activity); format: cell-based; conditions: 10 days; 50 ng/mL hM-CSF and 100 ng/mL hRANKL
Experimental: However, it is unclear whether 25-KR-03 has an inhibitory effect on human osteoclast differentiation. Accordingly, a human osteoclast differentiation model was established using human IPSC-derived macrophages. Cells were incubated with 50 ng/mL human M-CSF and 100 ng/mL RANKL to induce mature osteoclast formation.
Specifically, in FIG. 7A, the inhibitory effect of 25-KR-03 on human osteoclast differentiation was analyzed through TRAP staining. Human IPSC-derived macrophages were treated with the indicated concentrations of 25-KR-03 for 10 days in the induction medium containing 50 ng/mL hM-CSF and 100 ng/mL hRANKL. After the formation of multinucleated osteoclasts, TRAP staining was performed to visualize the formed osteoclasts.

[2] = system: F-actin belts of mature osteoclasts; experiment: F-actin ring immunofluorescence analysis (phalloidin staining); format: cell-based, C57/BL6 mice
Experimental: (§3) Bone resorption analysis was performed by a conventional method. Briefly, BMMs (2 × 10^4 cells/well) were seeded into a coated 48-well plate provided in the kit. After culturing with or without the indicated doses of 25-KR-03 and PMSA-3-Ac until mature osteoclasts were observed, 100 µL supernatant was harvested from each well and placed in a black polypropylene 96-well microplate. Fluorescence intensity was measured using a SpectraMax i3x fluorescence plate reader (excitation wavelength 485 nm; emission wavelength 535 nm). The decalcified pit area was visible under a microscope and calculated using ImageJ software. F-actin rings were visible using a rhodamine-coupled phalloidin staining assay (Thermo Fisher Scientific) as previously described.
(§4) In FIG. 4C, the fluorescence intensity of each group after 6 days was measured at excitation and emission wavelengths of 485 nm and 535 nm, respectively. All experiments were repeated three times.

[3] = system: OVX-induced osteoporosis mouse model; experiment: OVX-induced osteoporosis mouse model (micro-CT, body weight); format: in vivo, C57BL/6 female mice
Experimental: Specific pathogen-free facilities were used to grow mice. To investigate the effects of 25-KR-03 in vivo, the inventors established an OVX-induced osteoporosis mouse model as previously described. Seven-week-old C57BL/6 female mice were divided into four groups (Sham, OVX, 25-KR-03, and PMSA-3-Ac). Among them, the OVX, 25-KR-03, and PMSA-3-Ac groups underwent OVX surgery.
After a 1-week recovery period, mice were intraperitoneally injected with 25-KR-03 or PMSA-3-Ac (20 mg/kg, dissolved in a mixture of 10 % Tween 80 and 10% DMSO) once daily for 4 weeks. The sham and control (OVX) groups received equal volumes of the mixture of 10 % Tween 80 and 10% DMSO once daily for 4 weeks. Body weights of the mice were measured weekly. When the mice were euthanized, the femurs were isolated and fixed in 4.0% paraformaldehyde for micro-computed tomography (micro-CT) analysis as previously performed.
Micro-CT scanning was performed as in previous studies. The Quantum GX Micro-CT imaging system (PerkinElmer, Hopkinton, MA, USA) was used at the Korea Basic Science Institute (Gwangju, Korea).

NFATc1 = experiment: Western blotting analysis of osteoclast proteins and NFATc1 nuclear translocation; format: cell-based, C57/BL6 mice
Experimental: Total protein was extracted from osteoclasts and processed by a conventional method. To obtain total cell lysates, cells were lysed in ice-cold RIPA buffer for 30 min. After measuring the total protein concentration using the Enhanced BCA Protein Assay Kit, the protein was separated using 8-12% SDS-PAGE and transferred to a polyvinylidene fluoride membrane. Next, the membrane was blocked using 5% skim milk and incubated with a primary antibody (1:2,000 dilution) overnight. After incubation with a secondary antibody (1:2,000 dilution) for 1 hour, the membrane was washed and developed using an enhanced chemiluminescence (ECL) buffer as previously described. Relative protein expression was calculated by densitometric analysis using Image J software.
Specifically, in FIG. 6A, immunoblotting was performed for analysis. Culture was performed with or without 25-KR-03 for the indicated days in induction medium. […] GAPDH/LaminB1 was used as a loading control.

RANKL-induced BMM = experiment: In vitro osteoclast formation assay (TRAP staining / TRAP activity); format: cell-based, C57/BL6 mice
Experimental: as §1, §2

[4] = system: osteoclast bone resorption; experiment: Bone resorption analysis on fluoresceine amine-labeled calcium phosphate plates; format: cell-based, C57/BL6 mice
Experimental: as §3, §4

[5] = system: osteoclast-specific genes; experiment: Quantitative real-time PCR of osteoclast-specific genes; format: cell-based, C57/BL6 mice; conditions: Acp5, NFATc1, DC-STAMP, ATP6V0d2, MMP9 and Ctsk; 0, 1, 2, and 4 days
Description: Total RNA from BMM was isolated using QIAzol RNA lysis reagent (Qiagen Sciences, Valencia, CA, USA).
Specifically, FIGS. 5A to 5F show the results of measuring the relative mRNA levels of the indicated osteoclast-specific genes using qRT-PCR with or without 25-KR-03 treatment for 0, 1, 2, and 4 days. Black bars represent M-CSF and RANKL treatment groups ("Con") and gray bars correspond to 25-KR-03 treatment groups. Transcript levels were normalized to expression at day 0. All experiments were repeated three times.

For `COC(=O)c1cccc(NCC(=O)Nc2ccccc2Sc2ccccc2)c1` [Compound 25-KR-03, Methyl 3-((2-oxo-2-((2-(phenylthio)phenyl)amino)ethyl)amino)benzoate], which “cell viability of BMDMs” value (BMDMs) is on record?
Its value is “no significant effect”.

And the “inhibitory effect on human osteoclast differentiation” value [1]?
Its value is “has bioactivity in both mouse and human cells”.

What about the actin ring formation ([2]; at the indicated doses, RANKL/M-CSF-induced) of the same compound?
Its actin ring formation is “inhibited”.

And the “osteoclast F-actin belt formation, inhibition compared with control inhibitor” value ([2]; versus PMSA-3-Ac (10 µM))?
The value was “more strongly than PMSA-3-Ac”.

What about the “prevention of bone loss (Tb.Th and BMD values, micro-CT of femur)” value ([3]; 20 mg/kg intraperitoneally once daily for 4 weeks after surgery, compared with the OVX group) of the same compound?
Its value is “slight but significant prevention of bone loss”.

And the body weight ([3]; 20 mg/kg intraperitoneally once daily, 4 weeks)?
The body weight was “no significant weight reduction”.

And the “NFATc1 protein levels in the nucleus” value (NFATc1; BMDMs, 48 hours)?
The value was “significantly reduced”.

And the “NFATc1 protein levels in the cytoplasm” value (NFATc1; BMDMs, 48 hours, not significant)?
The value was “slightly increased”.

What about the “protein expression of Ctsk” value (NFATc1; Western blotting) of the same compound?
Its value is “significantly inhibited”.

What about the “protein expression of NFATc1, Traf6, c-src, GSK3β and calcineurin A” value (NFATc1; Western blotting, compared to the control group) of the same compound?
The value was “no significant effect”.

What about the “inhibitory effect on osteoclast differentiation” value (RANKL-induced BMM; 2 µM, TRAP staining) of the same compound?
Its value is “almost complete inhibition”.

And the inhibition at 1 µM (RANKL-induced BMM; Mus musculus, 1 µM, osteoclast differentiation in RANKL-induced BMM, mean ± SD from at least three experiments, read-out: Inhibition rate (%))?
Its inhibition at 1 µM is 72.3 ± 6.33%.

What about the inhibition at 2 µM (RANKL-induced BMM; Mus musculus, 2 µM, osteoclast differentiation in RANKL-induced BMM, mean ± SD from at least three experiments, read-out: Inhibition rate (%)) of the same compound?
Its inhibition at 2 µM is 99.89 ± 0.04%.

And the IC50 (RANKL-induced BMM; Mus musculus, Differentiation of BMDM, based on TRAP activity, 0 to 4000 nM)?
Its IC50 is 323 nM.

And the “formation of multinucleated mature osteoclasts” value (RANKL-induced BMM; RANKL-induced, concentration range up to 4000 nM)?
Its value is “completely blocked”.

What about the resorption pit area ([4]; 0.5, 1, and 2 µM, M-CSF and RANKL, 6 days) of the same compound?
The resorption pit area was “significantly reduced”.

What about the fluorescence intensity ([4]; dose-dependent manner, 6 days, excitation 485 nm, emission 535 nm) of the same compound?
Its fluorescence intensity is “reduced”.

What about the “bone resorption inhibition compared with control inhibitor” value ([4]; versus PMSA-3-Ac) of the same compound?
The value was “more effective than PMSA-3-Ac”.

What about the “relative mRNA expression levels of RANKL-induced osteoclastogenesis-related genes” value [5] of the same compound?
The value was “obviously decreased”.
